# Tested on: panel of 55 breast cancer cell lines
# Test: Cell growth inhibition assay (Cell Titer Glo, 72 h, 9 doses; GI50, TGI, LC50)
# Assay type: cell-based, human
# Details: value is the negative log10 of mol/L
smiles,measurement,setting,value
NS(=O)(=O)c1ccc(Nc2nc(OCC3CCCCC3)c3[nH]cnc3n2)cc1 [NU6102],GI50,"AU565 cell line, censored GI50 values",4.64
same,GI50,"BT474 cell line, censored GI50 values",4.56
same,GI50,"CAMA1 cell line, censored GI50 values",4.91
same,GI50,"HCC1143 cell line, censored GI50 values",4.87
same,GI50,"HCC1187 cell line, censored GI50 values",5.11
same,GI50,"HCC1395 cell line, censored GI50 values",5.24
same,GI50,"HCC1419 cell line, censored GI50 values",4.54
same,GI50,"HCC1428 cell line, censored GI50 values",4.87
same,GI50,"HCC1500 cell line, censored GI50 values",4.78
same,GI50,"HCC1806 cell line, censored GI50 values",4.64
same,GI50,cell line AU565,4.64
same,GI50,cell line BT20,4.23
same,GI50,cell line BT474,4.56
same,GI50,cell line BT483,4.18
same,GI50,cell line CAMA1,4.91
same,GI50,cell line HCC38,5.03
same,GI50,cell line HCC70,4.69
same,GI50,cell line HCC1143,4.87
same,GI50,cell line HCC1187,5.11
same,GI50,cell line HCC1395,5.24
same,GI50,cell line HCC1419,4.54
same,GI50,cell line HCC1428,4.87
same,GI50,cell line HCC1500,4.78
same,GI50,cell line HCC1806,4.64
same,GI50,cell line HCC1937,4.27
same,GI50,cell line HCC1954,4.34
same,GI50,cell line HCC2185,4.85
same,GI50,cell line HCC3153,4.81
same,GI50,cell line LY2,4.32
same,GI50,cell line MCF7,4.39
same,GI50,cell line MDAMB134V,4.34
same,GI50,cell line MDAMB175V,4.26
same,GI50,cell line MDAMB361,4.77
same,GI50,cell line MDAMB415,4.46
same,GI50,cell line MDAMB436,4.28
same,GI50,cell line MDAMB453,4.91
same,GI50,cell line MDAMB468,4.85
same,GI50,cell line SKBR3,4.51
same,GI50,cell line SUM52PE,5.27
same,GI50,cell line SUM149PT,5.08
same,GI50,cell line SUM159PT,4.90
same,GI50,cell line SUM185PE,5.53
same,GI50,cell line SUM225CWN,4.30
same,GI50,cell line SUM1315MO,5.40
same,GI50,cell line T47D,4.82
same,GI50,cell line UACC812,4.42
same,GI50,cell line ZR75B,4.85
same,GI50,cell line ZR751,4.76
